Measurements taken from patent US20090304692A1, “TRIAZINE COMPOUNDS AS PI3 KINASE AND MTOR INHIBITORS” (Wyeth, priority 2008, published 2009).
Several values for one entry are separate records, joined by “and”; a condition that tells them apart may be missing. Equal values may be shown once. Read-outs that look alike come from different tables or passages of the source.

Legend:
[1] = molecular target: Human mTOR (FLAG-TOR) (Homo sapiens, UniProt P42345); assay: mTOR kinase assay (DELFIA format, purified enzyme); format: biochemical; conditions: read-out: IC50 mTOR
[2] = molecular target: PI3K-γ (Homo sapiens, UniProt P48736); assay: PI3K-gamma fluorescence polarization assay
[3] = molecular target: PI3K-α (Homo sapiens, UniProt P42336); assay: PI3K-alpha fluorescence polarization assay
PI3K-α, sequence (P42336 whole entry, species assumed): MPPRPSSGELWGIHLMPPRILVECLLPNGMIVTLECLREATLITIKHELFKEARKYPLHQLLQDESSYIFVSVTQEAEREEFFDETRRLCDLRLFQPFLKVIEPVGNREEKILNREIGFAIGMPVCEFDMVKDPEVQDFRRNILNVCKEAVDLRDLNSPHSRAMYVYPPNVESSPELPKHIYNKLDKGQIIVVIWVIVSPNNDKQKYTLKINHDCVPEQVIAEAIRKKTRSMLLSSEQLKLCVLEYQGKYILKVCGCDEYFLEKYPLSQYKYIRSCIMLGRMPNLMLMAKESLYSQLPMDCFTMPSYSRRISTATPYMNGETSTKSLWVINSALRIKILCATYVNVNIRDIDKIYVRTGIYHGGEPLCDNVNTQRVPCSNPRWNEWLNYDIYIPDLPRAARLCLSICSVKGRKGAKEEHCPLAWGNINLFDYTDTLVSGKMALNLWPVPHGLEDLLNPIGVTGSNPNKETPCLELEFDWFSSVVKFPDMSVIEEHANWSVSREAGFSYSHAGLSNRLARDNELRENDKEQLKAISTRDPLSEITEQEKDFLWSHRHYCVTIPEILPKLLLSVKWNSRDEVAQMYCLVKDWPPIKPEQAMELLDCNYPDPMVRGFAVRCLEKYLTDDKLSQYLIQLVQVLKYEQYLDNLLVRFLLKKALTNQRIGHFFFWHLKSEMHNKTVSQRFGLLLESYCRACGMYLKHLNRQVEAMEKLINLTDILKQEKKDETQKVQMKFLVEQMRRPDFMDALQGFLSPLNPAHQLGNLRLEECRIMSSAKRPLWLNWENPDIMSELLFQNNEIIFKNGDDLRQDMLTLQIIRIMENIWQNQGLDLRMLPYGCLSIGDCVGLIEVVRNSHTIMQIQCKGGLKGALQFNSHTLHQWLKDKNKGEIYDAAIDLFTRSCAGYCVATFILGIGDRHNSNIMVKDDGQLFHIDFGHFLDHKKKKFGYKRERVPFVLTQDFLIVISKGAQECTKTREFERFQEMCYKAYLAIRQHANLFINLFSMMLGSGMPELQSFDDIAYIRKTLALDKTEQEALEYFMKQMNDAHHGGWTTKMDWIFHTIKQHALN
PI3K-α, sequence (P27986 whole entry partner, species assumed): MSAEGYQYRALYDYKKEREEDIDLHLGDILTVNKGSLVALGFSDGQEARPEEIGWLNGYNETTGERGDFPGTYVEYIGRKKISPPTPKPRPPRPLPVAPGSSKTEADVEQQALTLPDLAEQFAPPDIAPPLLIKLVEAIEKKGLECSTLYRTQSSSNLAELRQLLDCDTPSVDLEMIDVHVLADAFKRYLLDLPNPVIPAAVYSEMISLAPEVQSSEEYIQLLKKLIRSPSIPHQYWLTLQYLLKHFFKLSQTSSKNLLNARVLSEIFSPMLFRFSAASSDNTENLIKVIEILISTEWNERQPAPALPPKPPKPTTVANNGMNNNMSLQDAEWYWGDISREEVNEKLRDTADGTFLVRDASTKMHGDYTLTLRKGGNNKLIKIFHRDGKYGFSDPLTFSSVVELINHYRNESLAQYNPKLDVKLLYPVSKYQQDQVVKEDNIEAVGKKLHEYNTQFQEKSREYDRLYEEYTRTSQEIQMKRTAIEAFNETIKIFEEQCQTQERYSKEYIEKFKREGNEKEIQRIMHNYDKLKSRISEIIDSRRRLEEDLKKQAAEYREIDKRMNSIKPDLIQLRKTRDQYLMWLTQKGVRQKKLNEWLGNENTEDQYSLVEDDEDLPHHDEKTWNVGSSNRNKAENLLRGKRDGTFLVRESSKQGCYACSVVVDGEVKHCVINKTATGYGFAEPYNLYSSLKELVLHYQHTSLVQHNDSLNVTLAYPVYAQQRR

Human mTOR (FLAG-TOR), sequence (P42345 1360-2549 limits assumed): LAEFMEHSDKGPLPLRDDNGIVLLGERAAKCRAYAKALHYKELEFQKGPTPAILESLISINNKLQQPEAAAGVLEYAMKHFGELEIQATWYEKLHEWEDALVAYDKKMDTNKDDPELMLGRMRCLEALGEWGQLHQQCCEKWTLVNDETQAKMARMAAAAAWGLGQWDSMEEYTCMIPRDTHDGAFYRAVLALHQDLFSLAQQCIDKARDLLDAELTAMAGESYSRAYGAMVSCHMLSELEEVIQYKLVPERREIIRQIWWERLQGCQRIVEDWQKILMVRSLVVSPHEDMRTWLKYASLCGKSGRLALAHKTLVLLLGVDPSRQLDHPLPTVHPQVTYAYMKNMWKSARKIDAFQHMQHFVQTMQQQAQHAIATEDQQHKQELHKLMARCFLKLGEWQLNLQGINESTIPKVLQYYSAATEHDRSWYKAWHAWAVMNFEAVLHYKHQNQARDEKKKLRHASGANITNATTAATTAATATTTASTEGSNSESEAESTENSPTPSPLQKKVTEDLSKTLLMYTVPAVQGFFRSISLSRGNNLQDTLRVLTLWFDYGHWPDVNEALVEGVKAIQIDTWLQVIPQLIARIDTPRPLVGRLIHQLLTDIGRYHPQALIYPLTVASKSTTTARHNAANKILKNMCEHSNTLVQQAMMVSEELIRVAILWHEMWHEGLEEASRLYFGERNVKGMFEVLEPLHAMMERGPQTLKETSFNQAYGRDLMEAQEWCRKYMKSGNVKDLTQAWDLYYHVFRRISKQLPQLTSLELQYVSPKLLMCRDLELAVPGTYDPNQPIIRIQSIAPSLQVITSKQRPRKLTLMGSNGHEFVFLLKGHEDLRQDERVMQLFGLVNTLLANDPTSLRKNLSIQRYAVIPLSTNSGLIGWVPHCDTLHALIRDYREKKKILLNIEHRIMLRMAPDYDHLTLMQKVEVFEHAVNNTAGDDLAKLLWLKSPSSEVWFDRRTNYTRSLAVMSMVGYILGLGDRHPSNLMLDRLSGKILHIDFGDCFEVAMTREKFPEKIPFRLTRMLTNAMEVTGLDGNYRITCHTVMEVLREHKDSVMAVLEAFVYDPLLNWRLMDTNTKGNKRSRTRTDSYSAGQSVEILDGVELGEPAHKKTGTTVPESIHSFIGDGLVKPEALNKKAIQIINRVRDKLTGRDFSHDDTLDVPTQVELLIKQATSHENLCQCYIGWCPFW
PI3K-γ, sequence (P48736 whole entry, species assumed): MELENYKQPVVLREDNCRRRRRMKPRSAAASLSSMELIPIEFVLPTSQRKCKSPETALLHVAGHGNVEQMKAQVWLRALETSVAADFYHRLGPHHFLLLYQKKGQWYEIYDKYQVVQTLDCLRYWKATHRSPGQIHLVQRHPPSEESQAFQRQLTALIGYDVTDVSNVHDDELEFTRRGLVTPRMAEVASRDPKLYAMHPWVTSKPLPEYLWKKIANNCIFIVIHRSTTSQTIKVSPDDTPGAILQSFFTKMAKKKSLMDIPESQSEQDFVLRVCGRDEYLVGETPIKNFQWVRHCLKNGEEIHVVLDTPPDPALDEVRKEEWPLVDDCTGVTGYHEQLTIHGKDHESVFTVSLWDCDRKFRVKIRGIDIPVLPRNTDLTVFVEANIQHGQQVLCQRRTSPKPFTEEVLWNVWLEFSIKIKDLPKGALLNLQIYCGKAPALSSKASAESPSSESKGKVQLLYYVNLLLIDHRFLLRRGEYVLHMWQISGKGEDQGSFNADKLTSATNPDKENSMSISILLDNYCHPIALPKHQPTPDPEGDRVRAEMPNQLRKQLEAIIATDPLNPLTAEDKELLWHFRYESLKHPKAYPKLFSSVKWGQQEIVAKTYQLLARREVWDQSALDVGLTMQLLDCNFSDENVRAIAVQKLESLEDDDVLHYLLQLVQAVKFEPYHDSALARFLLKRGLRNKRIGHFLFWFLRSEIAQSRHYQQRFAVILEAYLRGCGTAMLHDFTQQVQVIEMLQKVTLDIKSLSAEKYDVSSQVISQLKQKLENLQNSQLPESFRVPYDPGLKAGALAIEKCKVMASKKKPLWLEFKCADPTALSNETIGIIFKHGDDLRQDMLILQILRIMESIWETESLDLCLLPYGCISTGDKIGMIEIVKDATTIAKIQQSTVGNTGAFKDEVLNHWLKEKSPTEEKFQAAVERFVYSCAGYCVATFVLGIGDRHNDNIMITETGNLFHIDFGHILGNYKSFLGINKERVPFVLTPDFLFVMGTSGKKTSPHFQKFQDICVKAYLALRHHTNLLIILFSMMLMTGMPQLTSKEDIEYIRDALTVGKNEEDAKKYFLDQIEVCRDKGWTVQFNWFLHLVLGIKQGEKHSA

Row | Molecule | IC50 [1] | IC50 ([2]; read-out: IC50 PI3Kγ) | IC50 ([3]; read-out: IC50 PI3Kα) | IC50 [2] | IC50 [3]
1 | CC(C)c1nc(-c2ccc(NC(=O)Nc3ccc(-c4cnc(N(C)C)nc4)cc3)cc2)nc(N2CCOCC2)n1 [Example 493, 1-{4-[2-(dimethylamino)pyrimidin-5-yl]phenyl}-3-{4-[4-(1-methylethyl)-6-morpholin-4-yl-1,3,5-triazin-2-yl]phenyl}urea] | 32.5 nM | 1080 nM | 2920 nM |  | 
2 | COC(=O)c1ccc(NC(=O)Nc2ccc(-c3nc(N4CCOCC4)nc(N4C5CCC4COC5)n3)cc2)cc1 [Example 693, methyl 4-[({4-[4-morpholin-4-yl-6-(3-oxa-8-azabicyclo[3.2.1]oct-8-yl)-1,3,5-triazin-2-yl]phenyl}carbamoyl)amino]benzoate] | 1.35 nM | 289 nM | 69 nM |  | 
3 | CC(C)N1CCCN(c2nc(-c3ccc(NC(=O)Nc4ccc(C(=O)O)cc4)cc3)nc(N3CCOCC3)n2)CC1 [Example 655, 4-{[(4-{4-[4-(1-methylethyl)-1,4-diazepan-1-yl]-6-morpholin-4-yl-1,3,5-triazin-2-yl}phenyl)carbamoyl]amino}benzoic acid] | 625 nM | 746 nM | 91.5 nM |  | 
4 | CN(C)[C@@H]1CCN(C(=O)c2ccc(NC(=O)Nc3ccc(-c4nc(N5CCOCC5)nc(N5CCOCC5)n4)cc3)cc2)C1 [Example 484, 1-(4-{[(3R)-3-(dimethylamino)pyrrolidin-1-yl]carbonyl}phenyl)-3-[4-(4,6-dimorpholin-4-yl-1,3,5-triazin-2-yl)phenyl]urea] | 0.63 nM |  | 1 nM |  | 
5 | Cc1ccc(-c2nc(-c3ccc(NC(=O)Nc4ccc(C(=O)N5CCCCC5)cc4)cc3)nc(N3CCOCC3)n2)cc1 [Example 555, 1-{4-[4-(4-methylphenyl)-6-morpholin-4-yl-1,3,5-triazin-2-yl]phenyl}-3-[4-(piperidin-1-ylcarbonyl)phenyl]urea] | 405 nM | 378 nM | 87.5 nM |  | 
6 | C[C@H]1COCCN1c1nc(-c2ccc(NC(=O)Nc3ccc(C(=O)N4CC[C@H](N(C)C)C4)cc3)cc2)nc(N2C3CCC2COC3)n1 [Example 834, 1-(4-{[(3S)-3-(dimethylamino)pyrrolidin-1-yl]carbonyl}phenyl)-3-(4-{4-[(3S)-3-methylmorpholin-4-yl]-6-(3-oxa-8-azabicyclo[3.2.1]oct-8-yl)-1,3,5-triazin-2-yl}phenyl)urea] | 680 nM | 86.5 nM | 4.8 nM |  | 
7 | CCc1nc(-c2ccc(NC(=O)Nc3ccc(C(=O)OC)cc3)cc2)nc(N2CCOCC2)n1 [Example 225, methyl 4-({[4-(4-ethyl-6-morpholin-4-yl-1,3,5-triazin-2-yl)phenyl]carbamoyl}amino)benzoate] | 47 nM | 388 nM | 109 nM |  | 
8 | CC(C)N1CCCN(c2nc(-c3ccc(NC(=O)Nc4ccc(C(=O)NCCN(C)C)cc4)cc3)nc(N3CCOCC3)n2)CC1 [Example 660, N-[2-(dimethylamino)ethyl]-4-{[(4-{4-[4-(1-methylethyl)-1,4-diazepan-1-yl]-6-morpholin-4-yl-1,3,5-triazin-2-yl}phenyl)carbamoyl]amino}benzamide] | 305 nM | 168 nM | 7.5 nM |  | 
9 | CCCCN1CCN(C(=O)c2ccc(NC(=O)Nc3ccc(-c4nc(N5CCOCC5)nc(N5CCCN(C(C)C)CC5)n4)cc3)cc2)CC1 [Example 665, 1-{4-[(4-butylpiperazin-1-yl)carbonyl]phenyl}-3-(4-{4-[4-(1-methylethyl)-1,4-diazepan-1-yl]-6-morpholin-4-yl-1,3,5-triazin-2-yl}phenyl)urea] | 445 nM | 284 nM | 71 nM |  | 
10 | C[C@@H]1COCCN1c1nc(-c2ccc(NC(=O)Nc3cccnc3)cc2)nc(C2CCOCC2)n1 [Example 420, (R)-1-(4-(4-(3-methylmorpholino)-6-(tetrahydro-2H-pyran-4-yl)-1,3,5-triazin-2-yl)phenyl)-3-(pyridin-3-yl)urea] | 0.63 nM | 4360 nM | 593 nM |  | 
11 | CCCCc1nc(-c2ccc(NC(=O)Nc3ccc(C(=O)OC)cc3)cc2)nc(N2CCOCC2)n1 [Example 188, methyl 4-({[4-(4-butyl-6-morpholin-4-yl-1,3,5-triazin-2-yl)phenyl]carbamoyl}amino)benzoate] | 11 nM | 2380 nM | 7540 nM |  | 
12 | COC(=O)c1ccc(NC(=O)Nc2ccc(-c3nc(C4=CCOCC4)nc(N4CCOCC4)n3)cc2)cc1 [Example 226, methyl 4-[({4-[4-(3,6-dihydro-2H-pyran-4-yl)-6-morpholin-4-yl-1,3,5-triazin-2-yl]phenyl}carbamoyl)amino]benzoate] | 62 nM | 294 nM | 75 nM |  | 
13 | CC(=O)NC1CCN(c2nc(-c3ccc(NC(=O)Nc4ccc(C(=O)O)cc4)cc3)nc(N3CCOCC3)n2)CC1 [Example 659, 4-{[(4-{4-[4-(acetylamino)piperidin-1-yl]-6-morpholin-4-yl-1,3,5-triazin-2-yl}phenyl)carbamoyl]amino}benzoic acid] | 720 nM |  | 3620 nM | ≥ 10000 nM | 
14 | CN1CCN(c2ccc(NC(=O)Nc3ccc(-c4nc(NS(=O)(=O)c5ccccc5)nc(N5CCOCC5)n4)cc3)cc2)CC1 [Example 782, N-{4-[4-({[4-(4-methylpiperazin-1-yl)phenyl]carbamoyl}amino)phenyl]-6-morpholin-4-yl-1,3,5-triazin-2-yl}benzenesulfonamide] | 110 nM | 252 nM | 124 nM |  | 
15 | CN(C)C(=O)N1CCN(c2nc(-c3ccc(NC(=O)Nc4ccncc4)cc3)nc(N3CCOCC3)n2)CC1 [Example 642, N,N-dimethyl-4-(4-morpholin-4-yl-6-{4-[(pyridin-4-ylcarbamoyl)amino]phenyl}-1,3,5-triazin-2-yl)piperazine-1-carboxamide] | 1 nM | 254 nM | 69 nM |  | 
16 | O=C(Nc1ccncc1)Nc1ccc(-c2nc(N3CCCC3)nc(N3CCOCC3)n2)cc1 [Example 600, 1-[4-(4-morpholin-4-yl-6-pyrrolidin-1-yl-1,3,5-triazin-2-yl)phenyl]-3-pyridin-4-ylurea] | 8 nM | 162 nM | 45.5 nM |  | 
17 | O=C(Nc1ccncc1)Nc1ccc(-c2nc(N3CCOCC3)nc(N3C4COCC(O)C3C4)n2)cc1 (centres unmarked) [Example 480, 1-{4-[4-(5-hydroxy-3-oxa-7-azabicyclo[4.1.1]oct-7-yl)-6-morpholin-4-yl-1,3,5-triazin-2-yl]phenyl}-3-pyridin-4-ylurea] | 2.9 nM | 53 nM | 13 nM |  | 
18 | CC(C)N1CCN(C(=O)c2ccc(NC(=O)Nc3ccc(-c4nc(C5CCOCC5)nc(N5CCOCC5)n4)cc3)cc2)CC1 [Example 523, 1-(4-{[4-(1-methylethyl)piperazin-1-yl]carbonyl}phenyl)-3-{4-[4-morpholin-4-yl-6-(tetrahydro-2H-pyran-4-yl)-1,3,5-triazin-2-yl]phenyl}urea] | 0.43 nM |  |  |  | 
19 | O=C(Nc1ccncc1)Nc1ccc(-c2nc(N3CCOCC3)nc(N3CCN(C45CC6CC(CC(C6)C4)C5)CC3)n2)cc1 [Example 640, 1-{4-[4-morpholin-4-yl-6-(4-tricyclo[3.3.1.13,7]dec-1-ylpiperazin-1-yl)-1,3,5-triazin-2-yl]phenyl}-3-pyridin-4-ylurea] | 2800 nM | 795 nM | 345 nM |  | 
20 | CNC(=O)Nc1ccc(-c2nc(-c3ccc(NC(=O)Nc4ccc(C(N)=O)cc4)cc3)nc(N3CCOCC3)n2)cc1 [Example 462, 4-({[4-(4-{4-[(methylcarbamoyl)amino]phenyl}-6-morpholin-4-yl-1,3,5-triazin-2-yl)phenyl]carbamoyl}amino) benzamide] | < 1 nM |  |  |  | 
21 | COC(=O)c1ccc(NC(=O)Nc2ccc(-c3nc(N4CCOCC4)nc(N4CCC(NC(C)=O)CC4)n3)cc2)cc1 [Example 656, methyl 4-{[(4-{4-[4-(acetylamino)piperidin-1-yl]-6-morpholin-4-yl-1,3,5-triazin-2-yl}phenyl)carbamoyl]amino}benzoate] | 19 nM | 651 nM | 73 nM |  | 
22 | C[C@@H]1COCCN1c1nc(-c2ccc(NC(=O)Nc3ccncc3)cc2)nc(N2CCOC[C@H]2C)n1 [Example 397, 1-(4-(4,6-bis((R)-3-methylmorpholino)-1,3,5-triazin-2-yl)phenyl)-3-(pyridin-4-yl)urea] | 0.16 nM | 2070 nM | 173 nM |  | 
23 | 1-(3-{[4-(dimethylamino)piperidin-1-yl]carbonyl}phenyl)-3-{4-[4-(4-methylphenyl)-6-morpholin-4-yl-1,3,5-triazin-2-yl]phenyl}urea [Example 579] | 120 nM | 658 nM | 462 nM |  | 
24 | COc1ccc(NC(=O)Nc2ccc(-c3nc(N4CCOCC4)nc(N4CCOCC4)n3)cc2)c(OC)c1 [Example 7, 1-(2,4-dimethoxyphenyl)-3-[4-(4,6-dimorpholin-4-yl-1,3,5-triazin-2-yl)phenyl]-urea] | > 4000 nM |  |  |  | > 10000 nM
25 | Cc1ccc(NC(=O)Nc2ccc(-c3nc(NC4CN(C(=O)OC(C)(C)C)C4)nc(N4CCOCC4)n3)cc2)cc1 [Example 16, tert-butyl 3-{[4-(4-{[(4-methylphenyl)carbamoyl]amino}phenyl)-6-morpholin-4-yl-1,3,5-triazin-2-yl]amino}azetidine-1-carboxylate] | 12 nM |  |  |  | > 10000 nM
26 | CN(C)[C@H]1CCN(C(=O)c2ccc(NC(=O)Nc3ccc(-c4nc(N5CCOCC5)nc(N5CCOCC5)n4)cc3)cc2)C1 [Example 485, 1-(4-{[(3S)-3-(dimethylamino)pyrrolidin-1-yl]carbonyl}phenyl)-3-[4-(4,6-dimorpholin-4-yl-1,3,5-triazin-2-yl)phenyl]urea] | 1.25 nM |  | 1.4 nM |  | 
27 | O=C(Nc1ccc(-c2nc(N3CCOCC3)nc(N3CCOCC3)n2)cc1)Nc1ccc(C(O)(C(F)(F)F)C(F)(F)F)cc1 [Example 56, 1-[4-(4,6-dimorpholin-4-yl-1,3,5-triazin-2-yl)phenyl]-3-{4-[2,2,2-trifluoro-1-hydroxy-1-(trifluoromethyl)ethyl]phenyl}urea] | 15 nM and 10 nM |  |  |  | 
